Source: patent US8148398B2, “Intermediate duration neuromuscular blocking agents and antagonists thereof” (Cornell Research Foundation, Inc., priority 2006, dated 2012)

Tests used:
Assay type in all cases: in vivo
Rhesus monkeys [1] = assay: Potency and duration of neuromuscular blockade, twitch response in anesthetized rhesus monkeys; conditions: for spontaneous recovery from neuromuscular blockade / duration of the neuromuscular blockade (FIG. 7): no antagonist; for effective dosage for 50% neuromuscular blockade (dose-response curve) / effective dosage for 95% neuromuscular blockade (dose-response curve): dose-response curve FIG. 3 / FIG. 10; for Potency (ED95 mg/kg) / Duration at 4X ED95 / Duration: rhesus monkeys; for Potency (ED95 mg/kg): intravenous, dose achieving 95% neuromuscular blockade; for Duration at 4X ED95: 4xED95 dosage; for Duration: from injection to 95% twitch recovery
Procedure: (§1) Rhesus monkeys were anesthetized with ketamine (7.5 mg/Kg) given intramuscularly or intravenously. Anesthesia was maintained with a mixture of isoflurane (1.5%), nitrous oxide (60%) and oxygen (40%). The common peroneal nerve was stimulated supramaximally with square wave pulses of 0.2 m sec duration at a rate of 0.15 Hz. Twitch contractions were recorded via the tendon of the extensor digitorum muscle.
(§2) In all animals, the trachea was intubated and ventilation was controlled at 12-15 ml/kg, 18-24 breaths per minute. A peripheral vein and artery were cannulated for drug administration and for recording of arterial pressure, respectively. In preliminary studies a neuromuscular blocking agent having one of the following structures was administered intravenously.

Rhesus monkeys [2] = assay: Reversal of neuromuscular blockade by cysteine plus glutathione in rhesus monkeys (Example 3); conditions: for time for reversal of the neuromuscular blockade (FIG. 5, as stated in Example 3): combination of cysteine and glutathione
Procedure: as §1, §2
In studies designed to examine the reversal of the neuromuscular blockade caused by these agents, cysteine and/or glutathione was administered to test animals at selected dosages.
Rhesus monkeys were anesthetized and treated with a neuromuscular blocking agent as described in Example 1.

Rhesus monkeys [3] = assay: Cardiovascular effects (mean arterial pressure, heart rate) of blocking agents in rhesus monkeys; conditions: for change in heart rate / change in mean arterial pressure: even high dosages, FIG. 8 / FIG. 9; for physiological distress to the circulation in vivo: rhesus monkeys
Procedure: as §1, §2
Rhesus monkeys were anesthetized and treated with a neuromuscular blocking agent as described in Example 1. FIGS. 8 and 9 provide mean values for the cardiovascular effects of administration of the AV002 and AV001 neuromuscular blocking agents, respectively as a function of dosage.

[4] = tested on: adult male rhesus monkeys; assay: Reversal of AV002 0.15 mg/kg block by cysteine/glutathione or neostigmine/atropine (Example 5); conditions: AV002 0.15 mg/kg (3XED95), spontaneous recovery
Procedure: Anesthesia was induced in adult male rhesus monkeys using 7.5 mg/kg ketamine. Tracheae were intubated using topical anesthetic. Anesthesia was maintained with isoflurane 1-2% and N2O/O2 (60%/40%). ECG, temperature, O2 saturation, and blood pressure were monitored and maintained within normal limits. Mechanomyogram (MMG) recordings were made of twitch responses from the extensor digitorum at 0.15 Hz. A control dose of AV002 (0.15 mg/kg; about 3 times the ED95) was given and animals were allowed to recover spontaneously. Another dose of 0.15 mg/kg of AV002 was given approximately 30 minutes after return of train of four (TOF) to greater than 100%. Reversal of the second dose of AV002 was attempted in four separate groups of animals with either:
1) cysteine 30 mg/kg and glutathione 30 mg/kg at 1 minute after injection of AV002,
2) cysteine 30 mg/kg and glutathione 30 mg/kg at the first sign of recovery of twitch,
3) neostigmine 0.05 mg/kg and atropine 0.03 mg/kg at 1 minute after injection of AV002, or
4) neostigmine 0.05 mg/kg and atropine 0.03 mg/kg at the first sign of recovery of twitch.
Comparative recovery intervals and total duration were analyzed using the student t-test.

neuromuscular blockade = assay: Reversibility of neuromuscular blockade by cysteine-like antagonists (general statements); conditions: general statement, no method given
[5] = 0.1 mg/kg blocking agent, FIG. 1 / FIG. 4

Structure (SMILES)	spontaneous recovery from neuromuscular blockade (Rhesus monkeys [1]; [5])	effective dosage for 50% neuromuscular blockade (dose-response curve) (Rhesus monkeys [1]) [mg/kg]	effective dosage for 95% neuromuscular blockade (dose-response curve) (Rhesus monkeys [1]) [mg/kg]	Potency (ED95 mg/kg) (Rhesus monkeys [1]) [mg/kg]	Duration at 4X ED95 (Rhesus monkeys [1]) [min]	Duration (Rhesus monkeys [1]) [min]	change in heart rate (Rhesus monkeys [3])	change in mean arterial pressure (Rhesus monkeys [3])	physiological distress to the circulation in vivo (Rhesus monkeys [3])	reversal of the blockade by cysteine-like molecules (cysteine, glutathione) (neuromuscular blockade)	also measured
COc1cc2c(cc1OC)[C@@H](Cc1cc(OC)c(OC)c(OC)c1)[N@+](C)(CCCOC(=O)/C=C/C(=O)OCCC[N@+]1(C)CCc3cc(OC)c(OC)cc3[C@H]1Cc1cc(OC)c(OC)c(OC)c1)CC2 [AV001]	about 2800 seconds	0.027	0.040	0.04	50 to 60	30 to 40	little or no change	little or no change	no signs of causing physiological distress to the circulation		time to reversal of neuromuscular blockade counted from blocking agent administration (Rhesus monkeys [2]; 0.1 mg/kg, 20 mg/kg cysteine + 10 mg/kg glutathione after two minutes): about 475 seconds; recovery from neuromuscular blockade with cysteine plus glutathione, overdose (Rhesus monkeys [2]; 3.0 mg/kg blocking agent, seconds value restated in minutes): about 8.5 min.
COc1ccc(C[C@@H]2c3cc(OC)c(OC)cc3CC[N@@+]2(C)CCCOC(=O)/C=C/C(=O)OCCC[N@+]2(C)CCc3cc(OC)c(OC)cc3[C@H]2Cc2ccc(OC)c(OC)c2)cc1OC [AV002]	about 1600 seconds	0.031	0.045	0.04	30 to 35	20 to 25	little or no change	little or no change	no signs of causing physiological distress to the circulation		duration of the neuromuscular blockade (FIG. 7) (Rhesus monkeys [1]; 0.1 mg/kg): about 1766 seconds; spontaneous recovery from neuromuscular blockade (Rhesus monkeys [1]; 0.2 mg/kg blocking agent, FIG. 6): about 1730 seconds; spontaneous recovery from neuromuscular blockade (Rhesus monkeys [1]; 0.2 mg/kg blocking agent, seconds value restated in minutes): about 28.8 min.; duration of the neuromuscular blockade (FIG. 7) (Rhesus monkeys [1]; 0.2 mg/kg): about 2150 seconds; potency of trans isomer (AV002) compared with cis isomer (AV003) (Rhesus monkeys [1]; comparison of ED95 values): five times more potent; time for reversal of the neuromuscular blockade (FIG. 5, as stated in Example 3) (Rhesus monkeys [2]; 0.1 mg/kg): about 320 seconds; recovery from neuromuscular blockade with cysteine plus glutathione (Rhesus monkeys [2]; 0.2 mg/kg blocking agent, antagonists at 2 minutes, seconds value restated in minutes): about 7.5 min.; time for reversal of the neuromuscular blockade (FIG. 5, as stated in Example 3) (Rhesus monkeys [2]; 0.2 mg/kg): about 670 seconds; Recovery Interval (5-95%) (minutes ± SE) [4]: 13.78 ± 1.27 min; Total Duration (inj − 95%) (minutes ± SE) [4]: 30.45 ± 2.24 min
COc1ccc(C[C@H]2c3cc(OC)c(OC)cc3CC[N@@+]2(C)CCCOC(=O)/C=C/C(=O)OCCC[N@+]2(C)CCc3cc(OC)c(OC)cc3[C@@H]2Cc2ccc(OC)c(OC)c2)cc1OC [AV003]				0.20	45 to 60	25 to 40					
COc1ccc(C[C@@H]2c3cc(OC)c(OC)cc3CC[N@+]2(C)CCC(=O)OCCCCCOC(=O)CC[N@@+]2(C)CCc3cc(OC)c(OC)cc3[C@H]2Cc2ccc(OC)c(OC)c2)cc1OC [cisatracurium]										no reversal effect whatsoever	
COc1cc(CC2c3c(cc(OC)c(OC)c3OC)CC[N+]2(C)CCCOC(=O)CCC(=O)OCCC[N+]2(C)CCc3cc(OC)c(OC)c(OC)c3C2Cc2cc(OC)c(OC)c(OC)c2)cc(OC)c1OC (stereo not drawn) [doxacurium]										no reversal effect whatsoever	
COc1cc2c(cc1OC)[C@@H](Cc1cc(OC)c(OC)c(OC)c1)[N+](C)(CCCOC(=O)CC/C=C/CCC(=O)OCCC[N+]1(C)CCc3cc(OC)c(OC)cc3[C@H]1Cc1cc(OC)c(OC)c(OC)c1)CC2 (stereo partly drawn) [mivacurium]										no reversal effect whatsoever	
